According to ChEMBL document CHEMBL3045098, “Petra, Osiris and Molinspiration (POM) together as a successful support in drug design: antibacterial activity and biopharmaceutical characterization of some azo Schiff bases” (2012):
The source made the active and inactive calls. The rule behind the calls is not given here.

Key:
Assay type in all cases: functional
Pseudomonas aeruginosa [1] = assay: Antimicrobial activity against Pseudomonas aeruginosa at 2000 ug after 24 hr by disk diffusion method relative to control
Klebsiella pneumoniae [2] = assay: Antimicrobial activity against Klebsiella pneumoniae at 2000 ug after 24 hr by disk diffusion method relative to control
Escherichia coli [3] = assay: Antimicrobial activity against Escherichia coli at 2000 ug after 24 hr by disk diffusion method relative to control
Bacillus subtilis [4] = assay: Antimicrobial activity against Bacillus subtilis at 2000 ug after 24 hr by disk diffusion method relative to control
Staphylococcus aureus [5] = assay: Antimicrobial activity against Staphylococcus aureus at 2000 ug after 24 hr by disk diffusion method relative to control
Staphylococcus aureus [6] = assay: Antimicrobial activity against Staphylococcus aureus at 2000 ug after 24 hr by disk diffusion method; conditions: read-out: IZ
Bacillus subtilis [7] = assay: Antimicrobial activity against Bacillus subtilis at 2000 ug after 24 hr by disk diffusion method; conditions: read-out: IZ
Escherichia coli [8] = assay: Antimicrobial activity against Escherichia coli at 2000 ug after 24 hr by disk diffusion method; conditions: read-out: IZ
Pseudomonas aeruginosa [9] = assay: Antimicrobial activity against Pseudomonas aeruginosa at 2000 ug after 24 hr by disk diffusion method; conditions: read-out: IZ
Klebsiella pneumoniae [10] = assay: Antimicrobial activity against Klebsiella pneumoniae at 2000 ug after 24 hr by disk diffusion method; conditions: read-out: IZ

Structure (SMILES) | inhibition (Pseudomonas aeruginosa [1]) | inhibition (Klebsiella pneumoniae [2]) | inhibition (Escherichia coli [3]) | inhibition (INH) (Bacillus subtilis [4]) [%] | inhibition (INH) (Staphylococcus aureus [5]) [%] | zone of inhibition at 2000 µg/disc (Staphylococcus aureus [6]) [mm] | zone of inhibition at 2000 µg/disc (Bacillus subtilis [7]) [mm] | inhibition (INH) (Pseudomonas aeruginosa [1]) [%] | inhibition (INH) (Klebsiella pneumoniae [2]) [%] | zone of inhibition at 2000 µg/disc (Escherichia coli [8]) [mm] | zone of inhibition at 2000 µg/disc (Pseudomonas aeruginosa [9]) [mm] | zone of inhibition at 2000 µg/disc (Klebsiella pneumoniae [10]) [mm] | inhibition (INH) (Escherichia coli [3]) [%]
COc1ccc(/N=N/c2cc(/C=N/c3ccc(Oc4cccc(/N=C/c5cc(/N=N/c6ccc(OC)cc6)cc(OC)c5O)c4)cc3)c(O)c(OC)c2)cc1 | inactive | inactive | inactive |  |  |  |  |  |  |  |  |  | 
COc1ccc(/N=N/c2cc(/C=N/Cc3ccccc3)c(O)c(OC)c2)cc1 | inactive | inactive | inactive |  |  |  |  |  |  |  |  |  | 
COc1ccc(/N=N/c2cc(/C=N/c3cccc(OC)c3)c(O)c(OC)c2)cc1 | inactive | inactive | inactive | 45 | 45 | 10 | 10 |  |  |  |  |  | 
COc1ccc(/N=N/c2cc(/C=N/c3cccc(C)c3)c(O)c(OC)c2)cc1 | inactive | inactive | inactive | 45 | 45 | 10 | 10 |  |  |  |  |  | 
COc1ccc(/N=N/c2cc(/C=N/c3ccccc3C)c(O)c(OC)c2)cc1 | inactive | inactive | inactive |  |  |  |  |  |  |  |  |  | 
COc1ccc(/N=N/c2cc(/C=N/c3ccccc3OC)c(O)c(OC)c2)cc1 | inactive | inactive | inactive |  |  |  |  |  |  |  |  |  | 
CN[C@@H]1[C@H](O[C@H]2[C@H](O[C@H]3[C@H](O)[C@@H](O)[C@H](N=C(N)N)[C@@H](O)[C@@H]3N=C(N)N)O[C@@H](C)[C@]2(O)C=O)O[C@@H](CO)[C@H](O)[C@H]1O [STREPTOMYCIN] |  |  |  | 64 | 45 | 10 | 14 | 64 | 64 | 14 | 14 | 14 | 64
CC1(C)S[C@@H]2[C@H](NC(=O)[C@H](N)c3ccccc3)C(=O)N2[C@H]1C(=O)O | inactive | inactive | inactive |  |  |  |  |  |  |  |  |  | 
COc1ccc(/N=N/c2cc(C=O)c(O)c(OC)c2)cc1 | inactive | inactive | inactive | 45 | 45 | 10 | 10 |  |  |  |  |  | 
COc1ccc(/N=N/c2cc(/C=N/c3cccc(O)c3)c(O)c(OC)c2)cc1 | inactive | inactive | inactive | 45 | 45 | 10 | 10 |  |  |  |  |  | 
COc1ccc(/N=N/c2cc(/C=N/c3ccc(S(=O)(=O)c4cccc(/N=C/c5cc(/N=N/c6ccc(OC)cc6)cc(OC)c5O)c4)cc3)c(O)c(OC)c2)cc1 | inactive | inactive | inactive | 64 | 45 | 10 | 14 |  |  |  |  |  | 
COc1ccc(/N=C/c2cc(/N=N/c3ccc(OC)cc3)cc(OC)c2O)cc1 | inactive | inactive | inactive |  |  |  |  |  |  |  |  |  | 
COc1ccc(/N=N/c2cc(/C=N/c3ccccc3)c(O)c(OC)c2)cc1 | inactive | inactive | inactive | 45 | 45 | 10 | 10 |  |  |  |  |  | 
